The test system of experiment [1] is mixture of Asaia bogorensis, Asaia lannaensis, Gluconobacter oxydans and Gluconacetobacter liquefaciens. Briefly: microbe, parasite or virus in culture. The conditions noted are these: 168 h, read-out: MIC ppm after one week.
Description: (§1) A drink was contaminated with a particular amount of a mixture of microorganisms and a mixture of preservatives was investigated for efficacy compared to the individual substances. The mixture of bacteria is composed of Asaia bogorensis, Asaia lannaensis, Gluconobacter oxydans and Gluconacetobacter liquefaciens.
(§2) The following relationships apply: QA/Qa+QB/Qb+QC/Qc=SI • Qa=concentration of substance A which is the MIC • Qb=concentration of substance B which is the MIC • Qc=concentration of substance C which is the MIC • QA=concentration of substance A in the concentration of A/B/C at which microbial growth is suppressed • QB=concentration of substance B in the concentration of A/B/C at which microbial growth is suppressed • QC=concentration of substance C the concentration of A/B/C at which microbial growth is suppressed • SI=Synergy Index • SI=1 means additivity • SI>1 means antagonism • SI<1 means synergism
The test system is the same in experiment [2]. The conditions noted are these: individual active ingredient; substrate iced tea; 200 cfu/mL per bacterium in the mixture.
Description: as §1, §2

Converted amounts (≈) assume the structure as drawn.

With `COC(=O)OC(=O)OC` [Dimethyl dicarbonate, dimethyl dicarbonate], the MIC in experiment [1] amounted to 300 µg/mL (≈ 2240 µM). Besides, in experiment [2], the “MIC ppm after one week” value amounted to 300 mg/L (≈ 2240 µM). For `O=S([O-])OS(=O)[O-].[K+].[K+]` [Potassium disulphite, potassium disulphite] the same measures were 60 µg/mL and 60 mg/L. In the case of `C/C=C/C=C/C(=O)[O-].[K+]` [Potassium sorbate, potassium sorbate], in experiment [1], the MIC stood at 750 µg/mL. Turning to `O=C([O-])c1ccccc1.[Na+]` [Sodium benzoate, sodium benzoate], the “MIC ppm after one week” value in experiment [2] was 550 mg/L.
